We go through five compounds from US20070269513A1, “Liver selective drug therapy” (priority 1999, published 2007).

Several values for one entry are separate records, joined by “and”; a condition that tells them apart may be missing. Identical values can stand only once. Bounds are passed on as bounds.

The conditions of data set [1]: review as at 18 Nov. 2004; cited from earlier work.
A short description of data set [2]: Kinetic study of slow-release propranolol granules given by mouth to anaesthetised dogs; portal venous and systemic blood concentration. The data set is classed as in vivo. To be noted: for Propranolol Concentration, Systemic: systemic blood. An excerpt: Experiments were undertaken in four dogs under general anaesthesia induced with halothane and then maintained with ketamine and xylazine. Cardiovascular status was monitored by measurement of heart rate and blood pressure and by measurement of arterial blood gases. Ventilation was assisted to maintain blood gases within physiological limits. A catheter was placed in the femoral artery to permit sampling of arterial blood. After laparotomy, a catheter was placed in a mesenteric vein and advanced to the portal vein to permit sampling of portal venous blood samples.
Propranolol was administered by mouth on the evening before, and then again one hour before the study as a dose of 40 mg in granules taken from a 160 mg slow release formulation of propranolol (Cardinol; Pacific Pharmaceuticals New Zealand). […] The animals were sacrificed at the end of he experiment.
The concentration in systemic blood was generally below the level of detection (<5 ug/ml).

The conditions of data set [3]: in vivo; cited from earlier work.
The conditions of data set [4]: FDA MEDWATCH, in words; cited from earlier work.

Turning to `CC(C)c1c(C(=O)Nc2ccccc2)c(-c2ccccc2)c(-c2ccc(F)cc2)n1CC[C@@H](O)C[C@@H](O)CC(=O)O` [Atorvastatin], in data set [1], the “transient global amnesia cases within Australia” value was 7 cases.

In data set [2] (dog, portal venous whole blood, oral, 40 mg, portal vein, 60 min, individual dogs 1-4), `CC(C)NCC(O)COc1cccc2ccccc12` (centres unmarked) [Propranolol, propranolol] displayed a concentration at 60 min of 5800 ng/mL. The “concentration in systemic blood” value in data set [2] (generally below the level of detection, summary of the table) was below 5000 ng/mL. Further, the “Propranolol Concentration, Portal Vein” value in data set [2] (portal vein, 30 min, individual dogs 1-4) is 11.5 µg/mL and 11.8 µg/mL and 13 µg/mL and 2 µg/mL; in data set [2] (portal vein, 60 min, individual dogs 1-4), 10.9 µg/mL and 10 µg/mL and 6 µg/mL; in data set [2] (portal vein, 90 min, individual dogs 1-4) it was 22 µg/mL and 14.4 µg/mL and 10 µg/mL and 5 µg/mL; in data set [2] (portal vein, 120 min, individual dogs 1-4) it was <5 µg/mL and 13 µg/mL and 4 µg/mL; in data set [2] (portal vein, Baseline, 40 mg slow-release granules by mouth evening before and one hour before study, individual dogs 1-4), <5 µg/mL and 28.8 µg/mL and 21 µg/mL and 36 µg/mL. The “portal versus systemic concentration (liver selectivity)” value in data set [2] (small series in dogs, conclusion in words) is “concentration gradients between portal and systemic vessels”. Further, the “Propranolol Concentration, Systemic” value in data set [2] (30 min, individual dogs 1-4) is <5 ug/ml (2×) and 2 ug/ml and <2 ug/ml; in data set [2] (60 min, individual dogs 1-4), 6.2 µg/mL and <5 µg/mL and 2 µg/mL and <2 µg/mL; in data set [2] (90 min, individual dogs 1-4), 5.8 µg/mL and <5 µg/mL and 2 µg/mL and <2 µg/mL; in data set [2] (120 min, individual dogs 1-4) it was <5 µg/mL and 2 µg/mL and <2 µg/mL; in data set [2] (Baseline, individual dogs 1-4), <5 ug/ml (2×) and 3 ug/ml and <2 ug/ml.

Take `CCC(C)(C)C(=O)O[C@H]1C[C@@H](C)C=C2C=C[C@H](C)[C@H](CC[C@@H]3C[C@@H](O)CC(=O)O3)[C@H]21` [simvastatin]: the half-life in data set [3] is 42 to 240 min.

For `CC[C@H](C)C(=O)O[C@H]1C[C@H](O)C=C2C=C[C@H](C)[C@H](CC[C@@H](O)C[C@@H](O)CC(=O)O)[C@H]21` [Pravastatin], the “transient global amnesia cases within Australia” value in data set [1] is recorded as 3 cases.

As for `COCc1c(C(C)C)nc(C(C)C)c(/C=C/[C@@H](O)C[C@@H](O)CC(=O)O)c1-c1ccc(F)cc1` [Cerivastatin, cerivastatin], the “implication in statin-associated rhabdomyolysis reports” value in data set [4] was “most commonly implicated statin”.
